Assay results taken from ChEMBL document CHEMBL4002560, “Synthesis and biological evaluation of novel isoxazolines linked via piperazine to 2- benzoisothiazoles as potent apoptotic agents” (Eur J Med Chem, 2017).
Calls of active or inactive are those of the source. The calls are words filed in the database; no cut-off is given here.

Assays:
MDA-MB-231 [1] = assay: Cytotoxicity against human MDA-MB-231 cells assessed as decrease in cell viability at 2 to 200 uM after 16 hrs by MTT assay; format: functional, cell-based
[2] = Cytotoxicity against mouse EAT cells assessed as cell death at 50 uM after 16 hrs by trypan blue dye exclusion assay relative to control; format: functional
EAT = assay: Cytotoxicity against mouse EAT cells assessed as decrease in cell viability at 50 uM by trypan blue dye exclusion assay; format: functional, cell-based; settings: TDE = time-dependent effect
[3] = Induction of apoptosis in mouse EAT cells assessed as early apoptotic cells with membrane blebbing and condensed nuclei at 50 uM after 16 hrs by acridine orange/ethidium bromide staining-based fluorescence microscopic method relative to control; format: functional
MDA-MB-231 [4] = assay: Cytotoxicity against human MDA-MB-231 cells assessed as decrease in cell viability after 16 hrs by MTT assay; format: functional, cell-based; settings: MDA-MB-231, 16 h

| Structure (SMILES) | Activity (MDA-MB-231 [1]) | Activity [2] | Activity (EAT) | Activity [3] | IC50 (MDA-MB-231 [4]) |
| --- | --- | --- | --- | --- | --- |
| c1ccc(COc2ccc(C3=NOC(CN4CCN(c5nsc6ccccc56)CC4)C3)cc2)cc1 (stereo unspecified) | Active | 45.6% | Tde | 59% | – |
| c1ccc(C2=NOC(CN3CCN(c4nsc5ccccc45)CC3)C2)cc1 (stereo unspecified) | inactive | 50% | Tde | – | – |
| COc1ccc(C2=NOC(CN3CCN(c4nsc5ccccc45)CC3)C2)cc1 (stereo unspecified) | Active | – | Tde | – | – |
| COc1cc(C2=NOC(CN3CCN(c4nsc5ccccc45)CC3)C2)cc(OC)c1OC (stereo unspecified) | inactive | – | Tde | – | – |
| COc1ccc(C2=NOC(CN3CCN(c4nsc5ccccc45)CC3)C2)cc1OCc1ccccc1 (stereo unspecified) | – | 44.6% | Tde | 50% | 95 µM |
| COc1cc(C2=NOC(CN3CCN(c4nsc5ccccc45)CC3)C2)ccc1OCc1ccccc1 (stereo unspecified) | – | 53% | Tde | 67.3% | 30 µM |
| Fc1ccc(C2=NOC(CN3CCN(c4nsc5ccccc45)CC3)C2)cc1 (stereo unspecified) | inactive | – | Tde | – | – |
| Clc1ccc(C2=NOC(CN3CCN(c4nsc5ccccc45)CC3)C2)cc1 (stereo unspecified) | – | – | Tde | 61.3% | 75 µM |
| COc1ccc(C2=NOC(CN3CCN(c4nsc5ccccc45)CC3)C2)cc1OC (stereo unspecified) | Active | – | Tde | – | – |
